# Measured values from US6509367B1 (priority 2001, dated 2003).
# “Also recorded” adds a separate entry of the source. Where two headings read alike, the source gives them in different places. Marks after values point to notes of the source that are not given here.
# Assays:
# mice [1] = assay: Spontaneous (locomotor) activity in mice, compound alone (agonism test); type: in vivo; conditions: for change in vivo at 1 mg/kg: at 1 mg/kg i.v.; for change in vivo at 3 mg/kg: at 3 mg/kg i.v.; for stimulation of locomotor activity: compound alone, dose not given (see Table 5)
# Procedure: (§1) Male ICR mice (25-32 g), purchased from Harlan (Dublin, Va.), were housed in groups of five. All animals were kept in a temperature-controlled (20-22° C.) environment with a 12-hour light-dark cycle (lights on at 7 a.m.). Separate mice were used for testing each drug dose in the in vivo behavioral procedures. The mice were maintained on a […] light: dark cycle, and received food and water ad libitum. Brain tissue for binding studies was obtained from male Sprague-Dawley rats (150-200 g) purchased from Harlan Laboratories (Dublin, Va.).
# (§2) Measurement of spontaneous activity in mice occurred in standard activity chambers interfaced with a Digiscan Animal Activity Monitor (Omnitech Electronics, Inc., Columbus, Ohio). A standard tail-flick apparatus (described by Dewey et al., 1970) and a digital thermometer (Fisher Scientific, Pittsburgh, Pa.) were used to measure antinociception and rectal temperature, respectively.
# (§3) All drugs were administered to the mice intravenously (i.v.) in the tail vein at a volume of 0.1 ml/10 g.
# (§4) Maximum latency of 10 sec was used.
# mice [2] = assay: Spontaneous activity in mice, compound in combination with 3 mg/kg Δ^9-THC (antagonism test); type: in vivo; conditions: for SA: maximum % antagonism of 3 mg/kg Δ^9-THC: analog 10 min before Δ^9-THC
# Procedure: as §1, §2, §3, §4
# mice [3] = assay: Rectal temperature (hypothermia) in mice, compound alone (agonism test); type: in vivo; conditions: for ED50: Mus musculus, iv
# Procedure: as §1, §2, §3, §4
# mice [4] = assay: Tail-flick antinociception in mice, compound alone (agonism test); type: in vivo; conditions: for ED50: Mus musculus, iv
# Procedure: as §1, §2, §3, §4
# mice [5] = assay: Antagonism tests with 3 mg/kg Δ^9-THC, stated across the measures (locomotor, antinociception, hypothermia)
# CB1 receptor = CB1 receptor (Rattus norvegicus, UniProt P20272); assay: biochemical; type: binding; conditions: for Ki: 1 nM [3H] CP 55,940, rat whole brain P2 membranes, 30° C. for 1 hr
# Procedure: as §1
# All assays, as described briefly below, were performed in triplicate, and the results represent the combined data from three to six individual experiments. Following decapitation and rapid removal of the brain, whole brain was homogenized and centrifuged. The resulting pellet was termed P1. The supernatant was saved and combined with the two subsequent supernatants obtained from washing of the P1 pellet. The combined supernatant fractions were centrifuged, resulting in the P2 pellet. After further incubation and centrifuging, this pellet was resuspended in assay buffer to a protein concentration of approximately 2 mg/ml. The membrane preparation was quickly frozen in a bath solution of dry ice and 2-methylbutane (Sigma Chemical Co., St. Louis, Mo.), then stored at −80° C. for no more than 2 weeks. […] Binding was initiated by the addition of 150 μg of P2 membrane to test tubes containing 1 nM of [3H] […] Following incubation at 30° C. for 1 hr, binding was terminated by addition of ice-cold buffer and vacuum filtration through pretreated filters in a 12-well sampling manifold (Millipore, Bedford, Mass.). After washing, filters were placed into plastic scintillation vials (Packard, Downer Grove, Ill.) and shaken. The quantity of radioactivity present was determined by liquid scintillation spectrometry.
# mice [6] = assay: Rectal temperature in mice, compound in combination with 3 mg/kg Δ^9-THC (antagonism test); type: in vivo
# Procedure: as §1, §2, §3, §4
# mice [7] = assay: Agonism tests in mice, stated across the triad (spontaneous activity, tail flick, rectal temperature); conditions: compound alone, i.v. doses up to 30 mg/kg
# mice [8] = assay: Tail-flick antinociception in mice, compound in combination with 3 mg/kg Δ^9-THC (antagonism test); type: in vivo
# Procedure: as §1, §2, §3, §4
# mice [9] = conditions: from Wiley et al., 1998; cited from earlier work
# mice [10] = conditions: from Wiley et al., 1998; cited from earlier work; remark: listed apart in the source
# mice [11] = conditions: from Wiley et al., 1998; cited from earlier work; remark: listed apart in the source
# [12] = Mus musculus, iv, mice, i.v., read-out: SA: > dose, 50% activity not achieved at this highest dose tested
# [13] = read-out: RT: > dose, 50% activity not achieved at this highest dose tested
# [14] = read-out: TF: > dose, 50% activity not achieved at this highest dose tested
# [15] = Mus musculus, iv, read-out: Max stim of spontaneous locomotor activity, Compound Alone
# [16] = Mus musculus, iv, at 30 mg/kg i.v., read-out: Max % inhibit of spontaneous locomotor activity, Compound Alone
# [17] = Mus musculus, iv, mice, i.v., 95% confidence limits in parentheses, * = estimated ED50, dose-effect curve not linear, read-out: SA (suppression of spontaneous activity) ED50
# [18] = at the dose(s) [mg/kg] given in parentheses in the cell
# [19] = 0.5 h, i.v., 30 min post-injection, 95% confidence limits in parentheses, read-out: RT (rectal temperature) ED50
# [20] = 20 min, i.v., 20 min post-injection, 95% confidence limits in parentheses, * = estimated ED50, dose-effect curve not linear, read-out: TF (tail flick, % MPE) ED50
# CB1 receptor, sequence (P20272 whole entry): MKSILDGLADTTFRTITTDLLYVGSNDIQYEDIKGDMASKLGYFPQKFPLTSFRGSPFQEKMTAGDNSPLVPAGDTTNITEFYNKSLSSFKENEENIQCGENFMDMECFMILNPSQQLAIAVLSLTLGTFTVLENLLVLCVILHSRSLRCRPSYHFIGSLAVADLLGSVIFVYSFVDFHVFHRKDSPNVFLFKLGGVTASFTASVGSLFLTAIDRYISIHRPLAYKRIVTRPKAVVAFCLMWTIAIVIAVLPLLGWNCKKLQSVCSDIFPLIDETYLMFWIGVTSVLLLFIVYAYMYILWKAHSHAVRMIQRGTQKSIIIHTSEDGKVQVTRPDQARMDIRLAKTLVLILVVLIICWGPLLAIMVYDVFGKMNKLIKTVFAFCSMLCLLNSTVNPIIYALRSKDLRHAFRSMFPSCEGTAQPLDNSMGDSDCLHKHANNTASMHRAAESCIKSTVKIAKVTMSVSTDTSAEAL
molecule,measurement,setting,value
CCC(C)c1ccc(-n2nc(C(=O)NN3CCCCC3)c(C)c2-c2ccc(Cl)cc2)cc1 (centres unmarked) [Compound O-1253],change in vivo at 30 mg/kg,"mice [1]; Mus musculus, iv, at 30 mg/kg i.v., read-out: Max stim of spontaneous locomotor activity, Compound Alone",73%
same,ED50,mice [1]; [12],> 30 mg/kg
same,"Max % inhibit of spontaneous locomotor activity, Compound Alone (in words: stimulation instead of inhibition)",mice [1]; doses in mg/kg,"stim at 1, 3, 10 & 30"
same,"Max % inhibit of spontaneous locomotor activity, Compound with 3 mg/kg Δ^9-THC",mice [2]; at 0.1 mg/kg i.v.,89% (0.1)
same,SA: maximum % antagonism of 3 mg/kg Δ^9-THC,mice [2]; at 1 mg/kg i.v.,97% (1)
same,"Max stim of spontaneous locomotor activity, Compound with 3 mg/kg Δ^9-THC",mice [2]; at 10 mg/kg i.v.,50% (10)
same,ED50,mice [3]; [13],> 30 mg/kg
same,ED50,mice [4]; [14],> 30 mg/kg
same,antagonism of the antinociceptive and hypothermic effects of Δ^9-THC (in words),mice [5]; 3 mg/kg Δ^9-THC i.v.,"full, dose-dependent antagonism"
same,Ki,CB1 receptor; Ki (nM),47 ± 2 nM
same,"CB1 binding affinity, fold less than SR 141716A",CB1 receptor; compared to SR 141716A,8 fold
"CCCCCNC(=O)c1nn(-c2ccc(Cl)cc2Cl)c(-c2ccc(Cl)cc2)c1C [Compound O-1269, N-(n-pentyl)-5-(4-chlorophenyl)-1-(2,4-dichlorophenyl)-4-methyl-1H-pyrazole-3-carboxamide]",change in vivo at 1 mg/kg,mice [1]; [15],7%
same,inhibition in vivo at 30 mg/kg,mice [1]; [16],87%
same,ED50,mice [1]; [17],11 µmol/kg
same,SA: maximum % antagonism of 3 mg/kg Δ^9-THC,mice [2]; at 3 mg/kg i.v.,38% (3)
same,"Max % inhibit of spontaneous locomotor activity, Compound with 3 mg/kg Δ^9-THC",mice [2]; at 10 mg/kg i.v.,91% (10)
same,"Max stim of spontaneous locomotor activity, Compound with 3 mg/kg Δ^9-THC (in words)",mice [2]; [18],"None (1, 3 & 10)"
same,ED50,mice [3]; [19],11 µmol/kg
same,ED50,mice [4]; [20],21 µmol/kg
same,RT: maximum % antagonism of 3 mg/kg Δ^9-THC,mice [6]; at 1 mg/kg i.v.,43% (1)
same,in vivo cannabinoid agonist activity (in words),mice [7],agonist activity
same,Ki,CB1 receptor; Ki (nM),32 ± 5 nM
same,% MPE: maximum % antagonism of 3 mg/kg Δ^9-THC,mice [8]; at 3 mg/kg i.v.,66% (3)
"CCCCCCCNC(=O)c1nn(-c2ccc(Cl)cc2Cl)c(-c2ccc(Cl)cc2)c1C [Compound O-1270, N-(n-heptyl)-5-(4-chlorophenyl)-1-(2,4-dichlorophenyl)-4-methyl-1H-pyrazole-3-carboxamide]",change in vivo at 3 mg/kg,mice [1]; [15],29%
same,inhibition in vivo at 30 mg/kg,mice [1]; [16],80%
same,ED50,mice [1]; [17],27 µmol/kg
same,stimulation of locomotor activity,mice [1],29%
same,"Max % inhibit of spontaneous locomotor activity, Compound with 3 mg/kg Δ^9-THC",mice [2]; at 10 mg/kg i.v.,87% (10)
same,"Max stim of spontaneous locomotor activity, Compound with 3 mg/kg Δ^9-THC (in words)",mice [2]; [18],None (10)
same,SA: maximum % antagonism of 3 mg/kg Δ^9-THC (in words),mice [2]; [18],None (10)
same,ED50,mice [3]; [19],12 µmol/kg
same,ED50,mice [4]; [20],20 µmol/kg
same,RT: maximum % antagonism of 3 mg/kg Δ^9-THC,mice [6]; at 1 mg/kg i.v.,26% (1)
same,in vivo cannabinoid agonist activity (in words),mice [7],agonist activity
same,Ki,CB1 receptor; Ki (nM),48 ± 12 nM
same,% MPE: maximum % antagonism of 3 mg/kg Δ^9-THC,mice [8]; at 3 mg/kg i.v.,37% (3)
CCCCCC(=O)c1nn(-c2ccc(Cl)cc2Cl)c(-c2ccc(Cl)cc2)c1C [Compound O-1271],change in vivo at 3 mg/kg,mice [1]; [15],54%
same,inhibition in vivo at 30 mg/kg,mice [1]; [16],7%
same,ED50,mice [1]; [12],> 30 mg/kg
same,stimulation of locomotor activity,mice [1],54%
same,"Max % inhibit of spontaneous locomotor activity, Compound with 3 mg/kg Δ^9-THC",mice [2]; at 3 mg/kg i.v.,58% (3)
same,SA: maximum % antagonism of 3 mg/kg Δ^9-THC,mice [2]; at 10 mg/kg i.v.,77% (10)
same,"Max stim of spontaneous locomotor activity, Compound with 3 mg/kg Δ^9-THC (in words)",mice [2]; [18],None (3 & 10)
same,ED50,mice [3]; [13],> 30 mg/kg
same,ED50,mice [4]; [14],> 30 mg/kg
same,RT: maximum % antagonism of 3 mg/kg Δ^9-THC,mice [6]; at 3 mg/kg i.v.,36% (3)
same,average % antagonism across the three measures,mice [5]; in combination with 3 mg/kg Δ^9-THC i.v.,59%
same,in vivo cannabinoid agonist activity (in words),mice [7],eliminated in vivo cannabimimetic activity; also recorded: did not have agonist properties
same,Ki,CB1 receptor; Ki (nM),82 ± 10 nM
same,% MPE: maximum % antagonism of 3 mg/kg Δ^9-THC,mice [8]; at 10 mg/kg i.v.,65% (10)
CCCCCCCC(=O)c1nn(-c2ccc(Cl)cc2Cl)c(-c2ccc(Cl)cc2)c1C [Compound O-1272],change in vivo at 3 mg/kg,mice [1]; [15],17%
same,inhibition in vivo at 30 mg/kg,mice [1]; [16],54%
same,SA: maximal effect produced by the analog,"mice [1]; mice, i.v., at 30 mg/kg",54% (30)^#
same,RT: maximal effect produced by the analog (change in rectal temperature),"mice [3]; i.v., at 30 mg/kg",−3 (30)^# ° C.
same,ED50,mice [4]; [14],> 30 mg/kg
same,in vivo cannabinoid agonist activity (in words),mice [7],eliminated in vivo cannabimimetic activity
same,Ki,CB1 receptor; read-out: Ki,221 ± 36 nM
CCCCCc1ccc(-c2cc(C(=O)NN3CCCCC3)nn2-c2ccc(Cl)cc2Cl)cc1 [Compound O-1710],change in vivo at 1 mg/kg,mice [1]; [15],4%
same,inhibition in vivo at 10 mg/kg,"mice [1]; Mus musculus, iv, at 10 mg/kg i.v., read-out: Max % inhibit of spontaneous locomotor activity, Compound Alone",42%
same,ED50,mice [1]; [12],> 30 mg/kg
same,SA: maximum % antagonism of 3 mg/kg Δ^9-THC,mice [2]; at 3 mg/kg i.v.,50% (3)
same,"Max % inhibit of spontaneous locomotor activity, Compound with 3 mg/kg Δ^9-THC",mice [2]; at 10 mg/kg i.v.,82% (10)
same,"Max stim of spontaneous locomotor activity, Compound with 3 mg/kg Δ^9-THC (in words)",mice [2]; [18],"None (0.3, 1, 3, & 10)"
same,ED50,mice [3]; [13],> 30 mg/kg
same,ED50,mice [4]; [14],> 30 mg/kg
same,RT: maximum % antagonism of 3 mg/kg Δ^9-THC,mice [6]; at 1 mg/kg i.v.,51% (1)
same,Ki,CB1 receptor; Ki (nM),27 ± 0.86 nM
same,"CB1 binding affinity, fold decrease by hydrogen substitution at position 4",CB1 receptor; compared to the p-pentylphenyl analog with 4-methyl,12 fold
same,% MPE: maximum % antagonism of 3 mg/kg Δ^9-THC,mice [8]; at 10 mg/kg i.v.,62% (10)
"CCCCCc1cc(O)c2c(c1)OC(C)(C)[C@@H]1CCC(C)=C[C@@H]21 [Δ^9-THC, Δ^9-tetrahydrocannabinol]",RT (rectal temperature) ED50,mice [9],2.5 µmol/kg
same,SA (suppression of spontaneous activity) ED50,mice [10],0.92 µmol/kg
same,"TF (tail flick, % MPE) ED50",mice [11],2.7 µmol/kg
"N-(N-Piperdyl)-3-(2,4-dichlrophenyl)-4-(4′-(1′-methylpentyl)phenyl)-5-methylpyrazole carboxamide [Compound O-1690]","Max % inhibit of spontaneous locomotor activity, Compound Alone",mice [1]; at 10 mg/kg i.v.,24% (10)
same,"Max stim of spontaneous locomotor activity, Compound Alone",mice [1]; at 30 mg/kg i.v.,18% (30)
same,"SA: > dose, 50% activity not achieved at this highest dose tested","mice [1]; mice, i.v.",>30 mg/kg
same,"Max % inhibit of spontaneous locomotor activity, Compound with 3 mg/kg Δ^9-THC",mice [2]; at 0.3 mg/kg i.v.,88% (0.3)
same,SA: maximum % antagonism of 3 mg/kg Δ^9-THC,mice [2]; at 1 mg/kg i.v.,65% (1)
same,"Max stim of spontaneous locomotor activity, Compound with 3 mg/kg Δ^9-THC",mice [2]; at 10 mg/kg i.v.,39% (10)
same,"RT: > dose, 50% activity not achieved at this highest dose tested",mice [3]; i.v.,>30 mg/kg
same,"TF: > dose, 50% activity not achieved at this highest dose tested",mice [4]; i.v.,>30 mg/kg
same,"antagonist potency, fold increase for hypothermia",mice [6]; compared to O-1302,approximately 3 fold
same,Ki,CB1 receptor; read-out: Ki,2.6 ± 0.13 nM
same,"antagonist potency, fold increase for antinociception",mice [8]; compared to O-1302,approximately 3 fold
